Assay results reported in PubChem BioAssay (NCI).
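How tested: cells in 96-well plates exposed to compound for 48 hours at five concentrations. TGI marks complete inhibition of growth.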

Key:
Test in all cases: NCI-60 cell line screen, 48 h
[1] = system: NCI-H23 lung
[2] = system: MDA-N
[3] = system: PC-3 prostate
[4] = system: 786-0 renal
[5] = system: OVCAR-3 ovarian
[6] = system: SF-539 CNS
[7] = system: DU-145 prostate
[8] = system: HL-60(TB) leukemia
[9] = system: CCRF-CEM leukemia
[10] = system: OVCAR-4 ovarian
[11] = system: CAKI-1 renal
[12] = system: SW-620 colon
[13] = system: SF-268 CNS
[14] = system: MDA-MB-435
[15] = system: SK-MEL-28 melanoma
[16] = system: SF-295 CNS
[17] = system: SK-MEL-5 melanoma
[18] = system: BT-549 breast
[19] = system: RXF 393 renal
[20] = system: MDA-MB-231 breast

COc1cc(Nc2cnc3cc(F)c(F)cc3n2)cc(OC)c1OC
TGI [1]: > 100 µM | TGI [2]: > 100 µM | TGI [3]: > 100 µM | TGI [4]: > 100 µM | TGI [5]: > 100 µM | TGI [6]: > 100 µM | TGI [7]: > 100 µM | TGI [8]: > 100 µM | TGI [9]: > 100 µM | TGI [10]: > 100 µM | TGI [11]: > 100 µM | TGI [12]: > 100 µM | TGI [13]: > 100 µM | TGI [14]: > 100 µM | TGI [15]: > 100 µM | TGI [16]: > 100 µM | TGI [17]: > 100 µM | TGI [18]: > 100 µM | TGI [19]: > 100 µM

Cc1ccc(S(=O)(=O)N/N=C/C(=C/c2ccc(Cl)cc2)CC(/C=N/NS(=O)(=O)c2ccc(C)cc2)=C\c2ccc(Cl)cc2)cc1
TGI [1]: 26.8 µM | TGI [2]: 26.7 µM | TGI [3]: 24 µM | TGI [4]: 4.38 µM | TGI [5]: 12.2 µM | TGI [20]: 24.8 µM | TGI [6]: 34.2 µM | TGI [7]: > 100 µM | TGI [8]: 8.15 µM | TGI [9]: 8.8 µM | TGI [10]: 24.8 µM | TGI [11]: 68.4 µM | TGI [12]: 27.6 µM | TGI [13]: 55.2 µM | TGI [14]: 14.2 µM | TGI [15]: 20.2 µM | TGI [16]: 55 µM | TGI [17]: 13.9 µM | TGI [19]: 7.38 µM

O=C1OC[C@@H]2Cc3cc4c(cc3[C@H](c3ccc5c(c3)OCO5)[C@@H]12)OCO4
TGI [1]: > 25 µM | TGI [2]: 21.6 µM | TGI [4]: > 25 µM | TGI [5]: > 25 µM | TGI [20]: > 25 µM | TGI [7]: > 25 µM | TGI [8]: > 25 µM | TGI [9]: > 25 µM | TGI [10]: > 25 µM | TGI [11]: > 25 µM | TGI [14]: > 25 µM | TGI [15]: > 25 µM | TGI [16]: > 25 µM | TGI [17]: > 25 µM | TGI [18]: > 25 µM

COc1ccc(C2S/C(=C\c3ccccc3O)C(=O)N2NC(=O)Cc2ccccc2)cc1 (stereo not drawn)
TGI [1]: > 100 µM | TGI [4]: > 100 µM | TGI [6]: > 100 µM | TGI [8]: > 100 µM | TGI [9]: > 100 µM | TGI [10]: > 100 µM | TGI [11]: > 100 µM | TGI [12]: > 100 µM | TGI [13]: > 100 µM | TGI [15]: > 100 µM | TGI [16]: > 100 µM | TGI [17]: > 100 µM | TGI [19]: > 100 µM

CC1=C(C#N)C(C#N)(C#N)C(NN(C)C)C1 (stereo not drawn)
TGI [1]: 40.8 µM | TGI [2]: 21.9 µM | TGI [3]: 46.6 µM | TGI [4]: 25.6 µM | TGI [20]: 28.4 µM | TGI [6]: > 100 µM | TGI [7]: 33.8 µM | TGI [8]: > 100 µM | TGI [9]: > 100 µM | TGI [10]: > 100 µM | TGI [11]: 7 µM | TGI [12]: > 100 µM | TGI [13]: 78.7 µM | TGI [14]: 75 µM | TGI [15]: > 100 µM | TGI [16]: 79.1 µM | TGI [17]: 17.5 µM | TGI [19]: 31.3 µM

CC(=O)c1c2c(cc3c1CC1(Cc4ccccc4C1=O)C3)CCC2 (stereo not drawn)
TGI [1]: > 100 µM | TGI [2]: > 100 µM | TGI [3]: > 100 µM | TGI [4]: 95.9 µM | TGI [5]: 52.7 µM | TGI [20]: 93.4 µM | TGI [6]: > 100 µM | TGI [7]: > 100 µM | TGI [8]: 33.7 µM | TGI [9]: > 100 µM | TGI [10]: > 100 µM | TGI [11]: 66 µM | TGI [12]: > 100 µM | TGI [13]: > 100 µM | TGI [14]: 64 µM | TGI [15]: 68.4 µM | TGI [16]: > 100 µM | TGI [17]: 23 µM | TGI [19]: 59.1 µM

COc1nc(C(=O)NNC(=O)c2nc(OC)c3ccccc3c2-c2ccccc2)c(-c2ccccc2)c2ccccc12
TGI [1]: > 100 µM | TGI [3]: > 100 µM | TGI [4]: > 100 µM | TGI [5]: > 100 µM | TGI [20]: > 100 µM | TGI [7]: > 100 µM | TGI [8]: > 100 µM | TGI [9]: > 100 µM | TGI [10]: > 100 µM | TGI [11]: > 100 µM | TGI [12]: > 100 µM | TGI [13]: > 100 µM | TGI [14]: > 100 µM | TGI [15]: > 100 µM | TGI [16]: > 100 µM | TGI [17]: > 100 µM | TGI [18]: > 100 µM | TGI [19]: > 100 µM

CC(=O)OCCn1cnc2nc(Nc3ccccc3)nc(Cl)c21
TGI [1]: > 100 µM | TGI [2]: > 100 µM | TGI [3]: > 100 µM | TGI [4]: > 100 µM | TGI [5]: > 100 µM | TGI [20]: > 100 µM | TGI [6]: > 100 µM | TGI [7]: > 100 µM | TGI [8]: > 100 µM | TGI [9]: > 100 µM | TGI [10]: > 100 µM | TGI [12]: > 100 µM | TGI [13]: > 100 µM | TGI [14]: > 100 µM | TGI [15]: > 100 µM | TGI [16]: > 100 µM | TGI [17]: > 100 µM

C=C1CC(c2ccc(OCCCN3C(=O)c4ccccc4C3=O)c(OC)c2)OC1=O (stereo not drawn)
TGI [1]: 18.4 µM | TGI [2]: 16.4 µM | TGI [3]: 25.7 µM | TGI [4]: 14.6 µM | TGI [5]: 8.96 µM | TGI [20]: 30.5 µM | TGI [6]: 1.69 µM | TGI [7]: 24.5 µM | TGI [8]: 2.8 µM | TGI [9]: 3.79 µM | TGI [11]: 5.16 µM | TGI [12]: 4.75 µM | TGI [13]: 23 µM | TGI [14]: 11.7 µM | TGI [15]: 9.34 µM | TGI [16]: 26.3 µM | TGI [17]: 23.2 µM | TGI [19]: 7 µM

N#C/C(C(=O)Nc1ccccc1)=C(/N)N1CCOCC1
TGI [1]: > 100 µM | TGI [2]: > 100 µM | TGI [3]: > 100 µM | TGI [4]: > 100 µM | TGI [5]: > 100 µM | TGI [6]: > 100 µM | TGI [7]: > 100 µM | TGI [9]: > 100 µM | TGI [11]: > 100 µM | TGI [12]: > 100 µM | TGI [14]: > 100 µM | TGI [15]: > 100 µM | TGI [16]: > 100 µM | TGI [17]: > 100 µM | TGI [18]: > 100 µM

O=S1(=O)OCCOS(=O)(=O)C1F
TGI [1]: > 100 µM | TGI [2]: > 100 µM | TGI [3]: > 100 µM | TGI [4]: > 100 µM | TGI [5]: > 100 µM | TGI [6]: > 100 µM | TGI [7]: > 100 µM | TGI [8]: > 100 µM | TGI [9]: > 100 µM | TGI [10]: > 100 µM | TGI [11]: > 100 µM | TGI [12]: > 100 µM | TGI [13]: > 100 µM | TGI [14]: > 100 µM | TGI [15]: > 100 µM | TGI [16]: > 100 µM | TGI [17]: > 100 µM | TGI [18]: > 100 µM | TGI [19]: > 100 µM

C[C@]12CC[C@H](O)CC1=CC[C@@H]1[C@@H]2CC[C@]2(C)C(=O)[C@@H](N3CCOCC3)C[C@@H]12
TGI [1]: > 100 µM | TGI [2]: > 100 µM | TGI [3]: > 100 µM | TGI [4]: > 100 µM | TGI [5]: > 100 µM | TGI [20]: > 100 µM | TGI [6]: > 100 µM | TGI [7]: > 100 µM | TGI [8]: > 100 µM | TGI [9]: > 100 µM | TGI [10]: > 100 µM | TGI [11]: > 100 µM | TGI [12]: > 100 µM | TGI [13]: > 100 µM | TGI [14]: > 100 µM | TGI [15]: > 100 µM | TGI [16]: > 100 µM | TGI [17]: > 100 µM | TGI [19]: > 100 µM

CCC1(CC)SCc2nc3ccccc3n21
TGI [1]: > 100 µM | TGI [2]: > 100 µM | TGI [3]: 81.1 µM | TGI [4]: > 100 µM | TGI [5]: > 100 µM | TGI [20]: 90.5 µM | TGI [6]: > 100 µM | TGI [7]: > 100 µM | TGI [8]: 59.5 µM | TGI [9]: > 100 µM | TGI [10]: > 100 µM | TGI [11]: 95.7 µM | TGI [12]: > 100 µM | TGI [13]: > 100 µM | TGI [14]: 68 µM | TGI [15]: > 100 µM | TGI [16]: > 100 µM | TGI [17]: 36.5 µM | TGI [19]: 94.5 µM
